Data: patent US8846656B2, “Tetrahydropyrido-pyridine and tetrahydropyrido-pyrimidine compounds and use thereof as C5a receptor modulators” (Novartis AG, priority 2011, dated 2014)

Key:
human C5aR = human C5aR (Homo sapiens (Human), UniProt P21730); assay: FLIPR assay: inhibition of C5a-mediated calcium mobilization; assay type: cell-based; details: stable cell line over expressing human C5aR & Gα15, human C5a at EC50 (0.1-0.25 nM)
How it was run: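 Stable cell line overexpressing human C5aR with Gα15, measured on FLIPR Tetra. Cells loaded 1 h at 37° C with calcium 5 dye and 2.5 mM probenecid in HBSS/20 mM HEPES/0.1% BSA. Compounds preincubated 30 minutes at room temperature in 1% DMSO before C5a.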

CD11b = assay: Human whole blood CD11b up-regulation assay; assay type: cell-based; details: Homo sapiens, 2 nM human C5a, CD15+ granulocytes, read-out: hCD11b IC50
How it was run: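 Heparinized human whole blood (used within 2 h) preincubated 10 min at room temperature with compound in 1% DMSO, then stimulated with 2 nM human C5a for 15 min. After anti-CD15/anti-CD11b staining on ice and RBC lysis, CD11b median fluorescence on 10,000 CD15+ granulocytes measured by flow cytometry.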

physchem = details: thermodynamic from solid, 24 hr Equilibrium Solubility

Sequence of human C5aR (P21730 whole entry): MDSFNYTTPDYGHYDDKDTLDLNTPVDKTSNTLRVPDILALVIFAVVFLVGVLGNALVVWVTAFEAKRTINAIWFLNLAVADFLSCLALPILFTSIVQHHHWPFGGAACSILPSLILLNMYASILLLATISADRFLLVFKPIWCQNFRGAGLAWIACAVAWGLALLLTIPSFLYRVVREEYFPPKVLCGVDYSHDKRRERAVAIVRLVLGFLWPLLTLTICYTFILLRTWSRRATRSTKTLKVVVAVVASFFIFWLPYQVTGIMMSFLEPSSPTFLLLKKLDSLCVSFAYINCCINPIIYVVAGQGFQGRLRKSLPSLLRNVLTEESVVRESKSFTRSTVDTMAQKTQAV

IC50 (human C5aR) [nM]	IC50 (CD11b) [nM]	Compound	solubility thermodynamic at 24 h (physchem; oil or lipid) [µg/mL]	solubility thermodynamic at 24 h (physchem; pH 1, simulated gastric fluid) [µg/mL]	solubility thermodynamic at 24 h (physchem; pH 4.5, aqueous buffer) [µg/mL]	solubility thermodynamic at 24 h (physchem; pH 5.5, fessif) [µg/mL]	solubility thermodynamic at 24 h (physchem; pH 6.5, fassif) [µg/mL]	solubility thermodynamic at 24 h (physchem; pH 6.8, aqueous buffer) [µg/mL]	solubility thermodynamic at 24 h (physchem; simulated gastric fluid) [µg/mL]	solubility thermodynamic at 24 h (physchem; water) [µg/mL]
20	37	CCn1nc(C2CC2)c(Cl)c1N1CCc2nc(-c3c(C)ccc4[nH]nc(C)c34)nc(N3CC(N(C)C)C3)c2C1 [Example 70-K, 1-(6-(4-chloro-3-cyclopropyl-1-ethyl-1H-pyrazol-5-yl)-2-(3,5-dimethyl-1H-indazol-4-yl)-5,6,7,8-tetrahydropyrido[4,3-d]pyrimidin-4-yl)-N,N-dimethylazetidin-3-amine]	–	–	–	–	–	–	–	–
2	10	CCn1nc(C2CC2)c(F)c1N1CCc2nc(-c3c(C)ccc4[nH]nc(C)c34)nc(N3CC[C@@H](OC)C(C)(C)C3)c2C1 [Example 71-B, (R)-6-(3-Cyclopropyl-1-ethyl-4-fluoro-1H-pyrazol-5-yl)-2-(3,5-dimethyl-1H-indazol-4-yl)-4-(4-methoxy-3,3-dimethylpiperidin-1-yl)-5,6,7,8-tetrahydropyrido[4,3-d]pyrimidine]	–	–	–	–	–	–	–	–

Compound	IC50 (human C5aR) [nM]	IC50 (CD11b) [nM]	solubility thermodynamic at 24 h (physchem; oil or lipid) [µg/mL]	solubility thermodynamic at 24 h (physchem; pH 1, simulated gastric fluid) [µg/mL]	solubility thermodynamic at 24 h (physchem; pH 4.5, aqueous buffer) [µg/mL]	solubility thermodynamic at 24 h (physchem; pH 5.5, fessif) [µg/mL]	solubility thermodynamic at 24 h (physchem; pH 6.5, fassif) [µg/mL]	solubility thermodynamic at 24 h (physchem; pH 6.8, aqueous buffer) [µg/mL]	solubility thermodynamic at 24 h (physchem; simulated gastric fluid) [µg/mL]	solubility thermodynamic at 24 h (physchem; water) [µg/mL]
CO[C@H]1C[C@H]2CC[C@@H](C1)N2c1nc(-c2c(C)ccc3[nH]nc(C)c23)nc2c1CN(c1cc(C(C)C)ccc1C)CC2 [Example 19-F, 2-(3,5-Dimethyl-1H-indazol-4-yl)-6-(5-isopropyl-2-methylphenyl)-4-((3-endo)-3-methoxy-8-azabicyclo[3.2.1]octan-8-yl)-5,6,7,8-tetrahydropyrido[4,3-d]pyrimidine]	4	13	> 26500	< 0.5	< 0.5	< 0.5	< 0.5	< 0.5	< 0.5	< 0.5
